PMC6719014, “First-In-Class Inhibitors Targeting the Interaction between Bacterial RNA Polymerase and Sigma Initiation Factor Affect the Viability and Toxin Release of Streptococcus pneumoniae” (Molecules, 2019)

Columns and labels:
[1] = target: T1, RNAP CH-σ (B. subtilis RpoC clamp-helix domain and full-length SigA) (Bacillus subtilis, UniProt P37871); test: split-luciferase (NanoLuc) protein-protein interaction inhibition; assay type: biochemical
T1 construct: RpoC clamp-helix domain 220-315 with SmBiT NanoLuc tag (N-terminal, pCU252); full-length SigA with LgBiT NanoLuc tag (C-terminal, pCU251); purified recombinant; tags kept; with RNA polymerase sigma factor SigA
Source text: split-luciferase (NanoLuc) protein-protein interaction inhibition on RNAP CH-σ (B. subtilis RpoC clamp-helix domain and full-length SigA)

[2] = target: T1, RNAP CH-σ (B. subtilis RpoC clamp-helix domain and full-length SigA); test: as above; assay type: binding

| Compound | inhibition at 10 µM [1] | IC50 [2] |
| --- | --- | --- |
| Nc1ccc(Sc2ccc(C(=O)c3ccccc3C(=O)O)cc2[N+](=O)[O-])cc1 [C3-003, 2-(4-((4-Aminophenyl)thio)-3-nitrobenzoyl)benzoic Acid] | 69.1 ± 10.7% | – |
| Nc1ccccc1Sc1ccc(C(=O)c2ccccc2C(=O)O)cc1[N+](=O)[O-] [C3-001, 2-(4-((2-Aminophenyl)thio)-3-nitrobenzoyl)benzoic Acid] | 62.2 ± 2.6% | 6.4 ± 0.71 µM |
| Nc1cccc(Sc2ccc(C(=O)c3ccccc3C(=O)O)cc2[N+](=O)[O-])c1 [C3-002, 2-(4-((3-Aminophenyl)thio)-3-nitrobenzoyl)benzoic Acid] | 81.3 ± 4.9% | – |
| O=C(O)c1ccccc1C(=O)c1ccc(Sc2ccc(Cl)c(Cl)c2)c([N+](=O)[O-])c1 [C3-005, 2-(4-((3,4-Dichlorophenyl)thio)-3-nitrobenzoyl)benzoic Acid] | 81.7 ± 0.9% | – |
| Nc1cc(Cl)ccc1Sc1ccc(C(=O)c2ccccc2C(=O)O)cc1[N+](=O)[O-] [C3-004, 2-(4-((2-Amino-4-chlorophenyl)thio)-3-nitrobenzoyl)benzoic Acid] | 60.5 ± 16.5% | – |
